Data published in article PMC7011792 (Journal of Enzyme Inhibition and Medicinal Chemistry, 2017).
Read-outs that look alike come from different tables or passages of the source.

What was measured:
[1] = molecular target: T1, AChE (EC 3.1.1.7) from electric eel (Electrophorus electricus, UniProt O42275); test: biochemical; conditions: for IC50: AChE from electric eel, mean ± SEM of three experiments; for Selectivity index (SI) = BuChE IC50/AChE IC50: eqBuChE IC50 / eeAChE IC50
T1 construct: purchased Sigma-Aldrich C3389
Method: (§1) AChE (EC 3.1.1.7, Type VI-S, from electric eel, C3389; from human, C1682) and BuChE (EC 3.1.1.8, from equine serum, C0663; from human, B4186), 5,5'-dithiobis (2-nitrobenzoic acid) (DTNB, D218200), acetylthiocholine iodide (ATC, A5751), and butyrylthiocholine iodide (BTC, B3253) were obtained from Sigma-Aldrich (St. Louis, MO).
(§2) The inhibitory effects of the synthesised compounds in this paper were evaluated according to our previously reported method. […] ATC/BTC iodide solution (0.075 M) was prepared in deionised water. […] The assay buffer was prepared as follows: potassium dihydrogen phosphate (1.36 g, 10 mmol) was dissolved in 100 ml of water. The pH of the solution was then adjusted to 8.0 ± 0.1 with KOH. Stock solutions of the test samples were dissolved in ethanol to give a final concentration of 10^−4 M when diluted to the final volume of 3.32 ml. For each compound, a dilution series of at least five different concentrations (normally 10^−5–10^−9 M) were prepared.
(§3) For measurement, a cuvette containing 3.0 ml of phosphate buffer, 100 µL of AChE or BuChE, 100 µL of DTNB, and 100 µL of the test compound solution were added in sequence. The reaction was initiated after adding 20 µL of ATC or BTC, and the solution was mixed immediately. […] For the reference value, 100 µL of water replaced the test compound solution. For the blank control, additionally 100 µL of water replaced the enzyme solution. The measurement for each concentration was assayed in triplicate. GraphPad Prism 5 was used for data processing. The inhibition curve was fitted by plotting percentage enzyme activity (100% for the reference) versus logarithm of test compound concentration. The IC50 values were calculated according to the curve, and the data were shown in mean ± SEM.
(§4) The inhibitory effects on ChEs of all the target compounds were determined according to Ellman’s method. AChE from electrophorus electricus (eeAChE) and BuChE from equine serum (eqBuChE) were used in the assays.

[2] = molecular target: T2, BuChE (EC 3.1.1.8) from horse serum (Equus caballus, UniProt P81908); test: biochemical; assay type: biochemical; conditions: BuChE from horse serum; mean ± SEM of three experiments
T2 construct: purchased Sigma-Aldrich C0663; host or cells: equine serum
Method: as §1, §2, §3, §4

[3] = molecular target: T3, AChE (EC 3.1.1.7) from human (Homo sapiens, UniProt P22303); test: Human AChE inhibition, Ellman's method; assay type: biochemical; conditions: for IC50: huAChE, mean ± SEM; for Selectivity index (SI) = BuChE IC50/AChE IC50, human enzymes: huBuChE IC50 / huAChE IC50
T3 construct: purchased Sigma-Aldrich C1682
Method: as §1
(§5) The inhibitory effects of the synthesised compounds in this paper were evaluated according to our previously reported method. Briefly, AChE/BuChE stock solution was diluted to give 2.5 units/mL (for eeAChE, eqBuChE, and huAChE) or 0.5 units/mL for huBuChE. ATC/BTC iodide solution (0.075 M) was prepared in deionised water. DTNB solution (0.01 M) was prepared using water containing 0.15% (w/v) sodium bicarbonate. The assay buffer was prepared as follows: potassium dihydrogen phosphate (1.36 g, 10 mmol) was dissolved in 100 ml of water. The pH of the solution was then adjusted to 8.0 ± 0.1 with KOH. Stock solutions of the test samples were dissolved in ethanol to give a final concentration of 10^−4 M when diluted to the final volume of 3.32 ml. For each compound, a dilution series of at least five different concentrations (normally 10^−5–10^−9 M) were prepared.
(§6) For measurement, a cuvette containing 3.0 ml of phosphate buffer, 100 µL of AChE or BuChE, 100 µL of DTNB, and 100 µL of the test compound solution were added in sequence. The reaction was initiated after adding 20 µL of ATC or BTC, and the solution was mixed immediately. Two minutes (eeAChE and eqBuChE) or 15 min (huAChE and huBuChE) after ATC or BTC addition, the absorption was measured at 25 °C (eeAChE and eqBuChE) or 37 °C (huAChE and huBuChE) at 412 nm, using a Shimadzu 160 spectrophotometer. For the reference value, 100 µL of water replaced the test compound solution. For the blank control, additionally 100 µL of water replaced the enzyme solution. The measurement for each concentration was assayed in triplicate. GraphPad Prism 5 was used for data processing. The inhibition curve was fitted by plotting percentage enzyme activity (100% for the reference) versus logarithm of test compound concentration. The IC50 values were calculated according to the curve, and the data were shown in mean ± SEM.

[4] = molecular target: T4, BuChE (EC 3.1.1.8) from human (Homo sapiens, UniProt P06276); test: Human BuChE inhibition, Ellman's method; assay type: biochemical; conditions: huBuChE; mean ± SEM
T4 construct: purchased Sigma-Aldrich B4186
Method: as §1, §5
as §6, with “The inhibition curve was fitted by plotting percentage enzyme activity (100% for the reference) versus logarithm of test compound concentration.” left out

Aβ1–42 = molecular target: T5, Aβ1–42 (Homo sapiens, UniProt P05067); test: Inhibition of self-induced Aβ1–42 aggregation (Thioflavin T assay); assay type: biochemical; conditions: compound 25 μM, 24 h, read-out: Inhibitory rate on self-induced Aβ1-42 aggregation
T5 construct: aliquots of 2.0 µL of Aβ1–42 (AS-64129–05 Anaspec Inc.); purchased Anaspec Inc. AS-64129–05
Method: Inhibitory effects of the compounds on self-induced Aβ1–42 aggregation were evaluated using a Thioflavin T (ThT)-(T3516, Sigma-Aldrich, St. Louis, MO) binding assay according to the previously reported method. […] The Aβ1–42 and the test sample solutions were incubated for 24 h at the room temperature.
The inhibitory rate of Aβ1–42 self-induced aggregation was calculated according to the following equation: (1-IFi/IFc) × 100%. IFi and IFc were the fluorescence intensities in the presence and absence of inhibitors, respectively, after subtracting the background fluorescence of the 5 mM Thioflavin T solution. Each measurement was repeated in triplicate. The inhibitory rate of the test compound was shown in mean ± SD.

ICR mice [5] = conditions: for ALT (U/L) / AST (U/L): mice serum, n = 6
Method: The activity of AST and ALT, two indicators of liver damage, was determined using corresponding assay kit (EF551 and EF550 for ALT, EH027, and EF548 for AST, Wako, Japan).
One hour after the collection of retrobulbar blood, mice were sacrificed and livers were harvested for morphological studies by using immunohistochemical method. Two 3 mm sections of each liver extending from the hilus to the margin of the left lateral lobe were isolated by Ultra-Thin Semiautomatic Microtome (Leica RM2245, Germany) and immediately placed in 10% buffered formaldehyde, fixed for two days, and embedded together in one paraffin block by using Paraffin Embedding Station (Leica EG1150H, Germany). Subsequently, 5 µm sections were prepared from these paraffin blocks. They were deparaffinated and stained with hematoxylin and eosin or by means of the periodic acid-Schiff procedure for glycogen.

ICR mice [6] = test: Morris water maze test, scopolamine-induced cognitive impairment; conditions: for Latency to target (second), Day 5 / Latency to target (second), Day 6 / Latency to target (second), Day 7 / Latency to target (second), Day 8 / Latency to target (second), Day 9: learning and training, oral, plus scopolamine; for Latency to target (second), Day 5 / Latency to target (second), Day 6 / Latency to target (second), Day 7 / Latency to target (second), Day 8 / Latency to target (second), Day 9 / Latency to Target: ICR mice; for Latency to Target: probe trial, oral administration plus scopolamine (1 mg/kg ip), mean ± SEM, n = 6; for trajectory in the Morris water maze test: scopolamine-impaired ICR mice, compared to tacrine group
[7] = 22 h after ig administration, 151.5 µmol/kg
[8] = 36 h after ig administration, 151.5 µmol/kg

T1 sequence (O42275 24-633): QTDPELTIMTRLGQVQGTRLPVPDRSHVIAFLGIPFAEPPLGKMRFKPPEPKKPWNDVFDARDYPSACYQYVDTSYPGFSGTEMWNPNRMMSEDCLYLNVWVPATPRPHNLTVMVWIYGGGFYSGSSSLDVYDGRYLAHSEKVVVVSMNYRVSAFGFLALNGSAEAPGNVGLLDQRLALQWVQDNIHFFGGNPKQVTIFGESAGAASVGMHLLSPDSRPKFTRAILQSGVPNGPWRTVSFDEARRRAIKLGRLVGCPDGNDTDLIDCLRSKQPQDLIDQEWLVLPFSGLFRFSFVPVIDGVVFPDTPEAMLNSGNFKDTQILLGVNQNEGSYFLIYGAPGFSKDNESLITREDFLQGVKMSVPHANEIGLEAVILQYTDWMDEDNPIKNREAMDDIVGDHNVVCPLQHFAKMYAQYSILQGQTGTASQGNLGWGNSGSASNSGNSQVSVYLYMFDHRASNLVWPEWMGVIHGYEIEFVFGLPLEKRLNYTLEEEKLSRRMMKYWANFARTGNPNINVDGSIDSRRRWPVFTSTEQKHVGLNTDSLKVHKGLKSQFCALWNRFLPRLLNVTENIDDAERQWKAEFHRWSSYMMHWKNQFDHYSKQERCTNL
T2 sequence (P81908 whole entry): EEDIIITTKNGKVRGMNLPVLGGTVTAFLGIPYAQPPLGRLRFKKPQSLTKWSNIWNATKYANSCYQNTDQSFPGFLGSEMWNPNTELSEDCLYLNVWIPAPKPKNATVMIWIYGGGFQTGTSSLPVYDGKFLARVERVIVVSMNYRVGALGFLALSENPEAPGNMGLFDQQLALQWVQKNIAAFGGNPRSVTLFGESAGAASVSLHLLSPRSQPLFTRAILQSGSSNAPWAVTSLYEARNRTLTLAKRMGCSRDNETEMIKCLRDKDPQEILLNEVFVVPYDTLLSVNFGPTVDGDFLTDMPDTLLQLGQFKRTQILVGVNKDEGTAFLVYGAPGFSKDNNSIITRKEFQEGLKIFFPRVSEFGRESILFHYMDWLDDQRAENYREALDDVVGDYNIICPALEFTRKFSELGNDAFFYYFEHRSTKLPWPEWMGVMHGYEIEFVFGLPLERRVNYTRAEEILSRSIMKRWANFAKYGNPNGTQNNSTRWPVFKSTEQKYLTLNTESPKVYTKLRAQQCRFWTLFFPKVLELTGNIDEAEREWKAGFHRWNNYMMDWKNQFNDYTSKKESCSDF
T5 sequence (P05067 672-713): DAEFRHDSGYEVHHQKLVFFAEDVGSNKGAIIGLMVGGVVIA
T3 sequence (P22303 32-614): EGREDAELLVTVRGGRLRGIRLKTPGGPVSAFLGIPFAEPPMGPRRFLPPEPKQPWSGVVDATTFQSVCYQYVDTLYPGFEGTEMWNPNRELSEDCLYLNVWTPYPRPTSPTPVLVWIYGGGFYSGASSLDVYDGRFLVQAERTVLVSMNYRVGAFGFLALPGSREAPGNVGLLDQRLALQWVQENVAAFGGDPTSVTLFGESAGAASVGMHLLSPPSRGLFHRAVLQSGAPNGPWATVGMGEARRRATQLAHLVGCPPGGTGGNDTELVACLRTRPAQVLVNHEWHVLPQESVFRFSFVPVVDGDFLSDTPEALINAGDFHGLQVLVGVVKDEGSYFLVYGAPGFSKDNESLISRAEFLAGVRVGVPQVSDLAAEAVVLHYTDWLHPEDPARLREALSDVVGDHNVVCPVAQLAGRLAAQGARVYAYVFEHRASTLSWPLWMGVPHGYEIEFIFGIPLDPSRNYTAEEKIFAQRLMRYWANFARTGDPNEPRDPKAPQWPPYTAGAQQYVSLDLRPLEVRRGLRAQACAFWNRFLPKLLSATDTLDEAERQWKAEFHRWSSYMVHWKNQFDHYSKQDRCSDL
T4 sequence (P06276 29-602): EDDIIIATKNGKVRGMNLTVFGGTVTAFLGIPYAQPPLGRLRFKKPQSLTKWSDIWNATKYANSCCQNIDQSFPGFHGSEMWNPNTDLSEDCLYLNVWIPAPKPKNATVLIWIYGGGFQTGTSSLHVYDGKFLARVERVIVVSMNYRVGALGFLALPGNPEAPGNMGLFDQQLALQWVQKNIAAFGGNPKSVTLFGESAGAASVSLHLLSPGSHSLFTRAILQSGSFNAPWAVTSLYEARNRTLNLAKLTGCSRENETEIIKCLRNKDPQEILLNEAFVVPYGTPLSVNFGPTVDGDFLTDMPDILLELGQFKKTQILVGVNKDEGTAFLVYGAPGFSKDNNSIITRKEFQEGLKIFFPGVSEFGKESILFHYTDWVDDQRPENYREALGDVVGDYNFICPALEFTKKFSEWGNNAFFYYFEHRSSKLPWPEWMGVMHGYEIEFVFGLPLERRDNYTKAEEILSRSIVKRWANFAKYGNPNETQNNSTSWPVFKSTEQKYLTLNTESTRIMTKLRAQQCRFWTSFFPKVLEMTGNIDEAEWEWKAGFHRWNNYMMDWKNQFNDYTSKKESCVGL

Row | SMILES | IC50 [1] | Selectivity index (SI) = BuChE IC50/AChE IC50 [1] | IC50 [2] | IC50 [3] | Selectivity index (SI) = BuChE IC50/AChE IC50, human enzymes [3] | IC50 [4] | inhibition at 25 µM (Aβ1–42) | morphologic changes in liver (ICR mice [5]; mouse, in vivo) | Latency to target (second), Day 5 (ICR mice [6]) | Latency to target (second), Day 6 (ICR mice [6]) | Latency to target (second), Day 7 (ICR mice [6]) | Latency to target (second), Day 8 (ICR mice [6]) | Latency to target (second), Day 9 (ICR mice [6]) | Latency to Target (ICR mice [6]) | trajectory in the Morris water maze test (ICR mice [6]) | other results
1 | O=C(/C=C/c1ccc(Cl)cc1)NCCCCCCNc1c2c(nc3ccccc13)CCCC2 [Compound 27, (E)-3-(4-chlorophenyl)-N-(6-((1,2,3,4-tetrahydroacridin-9-yl)amino)hexyl)acrylamide] | 6.9 ± 1.2 nM | 1.9 | 12.9 ± 1.7 nM | 16.5 nM | 0.3 | 5.7 nM | 42.2% | did not cause remarkable morphologic changes in liver | 57.1 ± 6.8 s | 41.5 ± 5.0 s | 39.2 ± 4.3 s | 27.6 ± 2.5 s | 28.3 ± 1.7 s | 25.6 ± 1.8 s | much shortened distances as compared to tacrine group | 
2 | COc1ccc(/C=C/C(=O)NCCCCCCNc2c3c(nc4ccccc24)CCCC3)cc1 [Compound 30, (E)-3-(4-methoxyphenyl)-N-(6-((1,2,3,4-tetrahydroacridin-9-yl)amino)hexyl)acrylamide] | 3.7 ± 1.5 nM | 6.1 | 22.5 ± 5.9 nM | 15.3 nM | 0.5 | 8 nM | 34.6% | did not cause remarkable morphologic changes in liver | 59.1 ± 7.0 s | 47.3 ± 6.6 s | 46.4 ± 6.8 s | 32.4 ± 5.3 s | 33.2 ± 4.0 s | 29.4 ± 1.9 s | much shortened distances as compared to tacrine group | 
3 | COc1cc(/C=C/C(=O)NCCCCCCNc2c3c(nc4ccccc24)CCCC3)ccc1OCc1ccc(C)cc1 [Compound 38] | 128 ± 13.3 nM | 0.5 | 58.4 ± 7.5 nM |  |  |  |  |  |  |  |  |  |  |  |  | 
4 | Oc1ccc(/C=C/c2cc(O)cc(O)c2)cc1 [Resveratrol, reference compound] |  |  |  |  |  |  | 30.4% |  |  |  |  |  |  |  |  | 
5 | Nc1c2c(nc3ccccc13)CCCC2 [Tacrine, reference compound] |  |  |  |  |  |  |  |  | 69.2 ± 11.0 s | 58.3 ± 7.9 s | 50.3 ± 6.3 s | 37.1 ± 5.1 s | 38.2 ± 2.6 s | 34.5 ± 1.3 s |  | ALT (U/L) (ICR mice [5]; 8 h after ig administration, 151.5 µmol/kg (tacrine 30 mg/kg, equimolar test compounds)): 38.0 ± 3.5 U/L; AST (U/L) (ICR mice [5]; 8 h after ig administration, 151.5 µmol/kg): 134.5 ± 9.9 U/L; ALT (U/L) (ICR mice [5]; [7]): 38.7 ± 5.2 U/L; AST (U/L) (ICR mice [5]; [7]): 125.8 ± 16.2 U/L; morphologic changes in liver (ICR mice [5]; 36 h after administration, HE staining, compared to control group): did not cause remarkable morphologic changes in liver; ALT (U/L) (ICR mice [5]; [8]): 40.9 ± 3.5 U/L; AST (U/L) (ICR mice [5]; [8]): 138.7 ± 8.5 U/L
